# According to PubChem BioAssay AID493126 (Sanford-Burnham Center for Chemical Genomics, 2011):
# Activity calls are given as the source filed them. No rule for the calls is given here.
# Target: Alkaline phosphatase, germ cell type (Homo sapiens) (UniProt P10696)
# Test: PLAP enzyme activity modulators, SAR follow-up, selectivity assay for human IAP activator project, biochemical (AID 493126)
# Settings: purified PLAP enzyme, counter-screen
# Sequence of Alkaline phosphatase, germ cell type (Homo sapiens) (P10696 whole entry, looked up): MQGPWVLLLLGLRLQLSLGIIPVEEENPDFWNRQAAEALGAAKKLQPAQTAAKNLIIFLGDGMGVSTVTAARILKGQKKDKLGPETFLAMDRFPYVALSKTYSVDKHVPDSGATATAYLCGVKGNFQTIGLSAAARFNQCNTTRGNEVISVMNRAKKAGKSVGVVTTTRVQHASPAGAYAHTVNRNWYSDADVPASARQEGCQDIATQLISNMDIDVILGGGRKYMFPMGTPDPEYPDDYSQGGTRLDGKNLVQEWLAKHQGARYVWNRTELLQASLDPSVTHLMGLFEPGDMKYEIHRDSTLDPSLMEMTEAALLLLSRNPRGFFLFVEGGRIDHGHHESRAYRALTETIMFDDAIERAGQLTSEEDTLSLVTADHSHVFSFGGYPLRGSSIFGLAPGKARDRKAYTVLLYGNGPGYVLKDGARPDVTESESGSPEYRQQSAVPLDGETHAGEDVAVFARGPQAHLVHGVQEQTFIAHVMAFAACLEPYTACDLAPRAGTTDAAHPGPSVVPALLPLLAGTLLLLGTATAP
row,IC50 (inhibition of PLAP activity),Structure (SMILES)
1,8.16 µM,C/C(=N\NC(=O)c1cc(C)[nH]n1)c1ccc2ccccc2c1O
2,> 100 µM (inactive),COC(=O)c1ccc(/C=N/NC(=O)C(=O)N/N=C/c2ccc(C(=O)OC)cc2)cc1
3,9.66 µM,Cn1cccc1-c1cc(C(=O)NN=Cc2cc(Br)ccc2O)[nH]n1
4,12.1 µM,COc1cccc(C=NNC(=O)c2[nH]nc3c2CCc2ccccc2-3)c1O
5,7.02 µM,CCOc1cccc(C=NNC(=O)c2cc(C3CC3)[nH]n2)c1O
6,> 100 µM (inactive),COc1cc(OC)c(OC)cc1/C=N/NC(=O)C(=O)N/N=C/c1cc(OC)c(OC)cc1OC
7,58.1 µM,O=C(N/N=C/c1ccccc1C(=O)O)C(=O)N/N=C/c1ccccc1C(=O)O
8,31.8 µM,O=C(N/N=C/c1c(O)ccc2ccccc12)c1cc(-c2cccs2)[nH]n1
9,15 µM,O=C(NNC(=S)NC(=O)c1ccccc1[N+](=O)[O-])c1ccccc1O
10,> 100 µM (inactive),O=C(N/N=C/c1cc(Br)ccc1O)C(=O)N/N=C/c1cc(Br)ccc1O
11,28.7 µM,COc1cccc(C=NNC(=O)C(=O)NN=Cc2cccc(OC)c2OC)c1OC
12,7.02 µM,Cc1cc(C(=O)N/N=C\c2cc(C(C)(C)C)ccc2O)n[nH]1
13,9.86 µM,CCOc1cccc(C=NNC(=O)c2cc(-c3cccn3C)n[nH]2)c1O
14,9.56 µM,CC(C)C(=O)NC(=S)Nc1ccccc1C(=O)Nc1ccccc1
15,0.87 µM,O=C1Nc2ccc(Br)cc2C12NNc1ccccc1O2 (stereo unspecified)
16,6.83 µM,OC(c1nc2ccc(F)cc2[nH]1)C(O)c1nc2ccc(F)cc2[nH]1 (stereo unspecified)
17,8.33 µM,O=C(N/N=C/c1ccccc1O)c1n[nH]c2c1CCC2
18,> 100 µM (inactive),COc1cc(/C=N\NC(=O)C(=O)N/N=C/c2cc(OC)c(O)c(OC)c2)cc(OC)c1O
19,> 100 µM (inactive),COc1ccc(-c2cc(C(=O)NN=Cc3c(O)ccc4ccccc34)[nH]n2)cc1

row,IC50 (inhibition of PLAP activity),Structure (SMILES)
1,8.67 µM,COc1cccc(C=NNC(=O)c2cc(-c3cccn3C)n[nH]2)c1O
2,53.2 µM,COc1ccc(OC)c(/C=N/NC(=O)C(=O)N/N=C/c2cc(OC)ccc2OC)c1
3,> 100 µM (inactive),Cc1cc(C(=O)NN=Cc2cccc([N+](=O)[O-])c2O)n[nH]1
4,23.7 µM,O=C(CCN1C(=O)/C(=C/c2ccccc2Cl)SC1=S)NNC(=O)c1ccccc1O
5,> 100 µM (inactive),O=C(N/N=C\c1ccc2c(c1)OCO2)C(=O)N/N=C/c1ccc2c(c1)OCO2
6,32.9 µM,O=C(NN=Cc1ccccc1)C(=O)NN=Cc1ccccc1
7,> 100 µM (inactive),CC(=O)Nc1ccc(/C=N/NC(=O)C(=O)N/N=C/c2ccc(NC(C)=O)cc2)cc1
8,> 100 µM (inactive),O=C(N/N=C/c1ccc(O)cc1)C(=O)N/N=C/c1ccc(O)cc1
9,11 µM,O=C(NC(=S)NNC(=O)c1ccccc1O)c1ccc(F)cc1
10,> 100 µM (inactive),O=C(N/N=C/c1ccc2c(c1)OCO2)C(=O)N/N=C/c1ccc2c(c1)OCO2
11,> 100 µM (inactive),COc1ccc(-c2csc(Nc3cccc4ccccc34)n2)cc1F
12,8.62 µM,O=C(N/N=C/c1ccccc1O)c1cc(C2CC2)[nH]n1
13,> 100 µM (inactive),COc1ccc(/C=N/NC(=O)C(=O)N/N=C/c2ccc(OC)c(OC)c2)cc1OC
14,6.41 µM,Cc1ccc(-c2cc(C(=O)NN=Cc3ccccc3O)n[nH]2)o1
15,8.02 µM,COc1cccc(C=NNC(=O)C2=NNC(=O)C2C)c1O (stereo unspecified)
16,10.2 µM,CC(=O)Nc1cccc(C(=O)NNC(=O)c2n[nH]c(=O)c3ccccc23)c1
17,> 100 µM (inactive),CCCCOc1ccc(/C=N/NC(=O)C(=O)N/N=C/c2ccc(OCCCC)cc2)cc1
18,> 100 µM (inactive),O=C(NN=Cc1ccc(O)cc1O)C(=O)NN=Cc1ccc(O)cc1O
19,10.3 µM,CC1C(=O)NN=C1C(=O)NN=Cc1ccc(O)cc1O (stereo unspecified)

row,IC50 (inhibition of PLAP activity),Structure (SMILES)
1,10.3 µM,Cc1cc(C(=O)N/N=C/c2cc(Br)ccc2O)n[nH]1
2,46.8 µM,COc1cc(/C=N/NC(=O)C(=O)N/N=C/c2ccc(O)c(OC)c2)ccc1O
3,> 100 µM (inactive),N#CCOc1ccccc1/C=N/NC(=O)C(=O)N/N=C/c1ccccc1OCC#N
4,9.49 µM,COc1cc(OC)cc(C(=O)NNC(=O)c2nn(C)c(=O)c3ccccc23)c1
5,> 100 µM (inactive),COc1cc(/C=N/NC(=O)C(=O)N/N=C/c2cc(OC)c(OC)c(OC)c2)cc(OC)c1OC
6,56.1 µM,O=C(N/N=C\c1cccc(O)c1)C(=O)N/N=C/c1cccc(O)c1
7,14.6 µM,Cc1ccc(O)c(C=NNC(=O)c2[nH]ncc2Br)c1
8,> 100 µM (inactive),Cc1cc(C(=O)NN=Cc2cc(Cl)cc([N+](=O)[O-])c2O)n[nH]1
9,> 100 µM (inactive),CN(C)c1ccc(/C=N/NC(=O)C(=O)N/N=C/c2ccc(N(C)C)cc2)cc1
10,52.3 µM,CC(C)Oc1ccccc1/C=N/NC(=O)C(=O)N/N=C/c1ccccc1OC(C)C
11,> 100 µM (inactive),O=C(N/N=C/c1c(O)ccc2ccccc12)C(=O)N/N=C/c1c(O)ccc2ccccc12
12,7.57 µM,C/C(=N\NC(=O)c1[nH]nc2c1CCc1ccccc1-2)c1ccccc1O
13,> 100 µM (inactive),CC(=NNC(=O)C(=O)NN=C(C)c1cccc(O)c1)c1cccc(O)c1
14,11.5 µM,O=C(N/N=C/c1cc(Br)ccc1O)c1cc(C2CC2)[nH]n1
15,> 100 µM (inactive),CCN(CC)c1ccc(/C=N/NC(=O)C(=O)N/N=C/c2ccc(N(CC)CC)cc2O)c(O)c1
16,> 100 µM (inactive),O=C(NN=Cc1c(O)ccc2ccccc12)c1[nH]ncc1Br
17,8.61 µM,COc1cccc(C=NNC(=O)C(=O)NN=Cc2cccc(OC)c2O)c1O
18,> 100 µM (inactive),CCOc1cc(/C=N/NC(=O)C(=O)N/N=C/c2ccc(O)c(OCC)c2)ccc1O
